viability, T/C data for 4 molecules are collected here from PubChem BioAssay AID2060611 (Molecular Pharmacology Branch, DTP, NCI, 2025).

A word on the viability, T/C: it is the result in the treated group divided by that in the control group, in per cent.
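Note: spheroids exposed to agents for seven days before readout; 100% = DMSO vehicle control viability.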

For one assay, the system named is 628569-122-R-J1-PDC complex spheroid viability. Put plainly: Anticancer human tumor 628569-122-R-J1-PDC patient-derived head and neck squamous carcinoma cell line growth inhibition [CLK]. The note with it: second compound 3.16 µM; first compound 0.1 µM; stronger effect = lower value. In a few lines: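 Patient-derived tumor cells grown as complex spheroids with HUVEC endothelial cells and mesenchymal stem cells, treated with drug combinations. Concentrations descend in half-log steps from near clinical Cmax, or from 10 microM if Cmax unknown.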
Consider `O=c1[nH]cc(F)c(=O)[nH]1` + CNC(=O)c1ccc(Nc2nc(OC3CCCC3)c3c(-c4ccc5nc(C)oc5c4)c[nH]c3n2)c(OC)c1, for which the viability, T/C is 44.9%.
For the molecule `CC1COCCN1c1cc(C2(S(C)(=N)=O)CC2)nc(-c2ccnc3[nH]ccc23)n1` (centres undefined) + CN1CCN(c2cc(C(=O)Nc3cc4cc(-c5cnn(C)c5)ccc4cn3)ccn2)CC1, the viability, T/C is 5.23%.
The same measure, in the same setting: to `COC1C=CCC(C)C(C)S(=O)(=O)NC(=O)c2ccc3c(c2)N(CC2CCC21)CC1(CCCc2cc(Cl)ccc21)CO3` (centres undefined) + CNC(=O)c1ccc(Nc2nc(OC3CCCC3)c3c(-c4ccc5nc(C)oc5c4)c[nH]c3n2)c(OC)c1 belongs 41.1%; to `COc1cccc2c1C(=O)c1c(O)c3c(c(O)c1C2=O)CC(O)(C(=O)CO)CC3OC1CC(N)C(O)C(C)O1` (centres undefined) + CNC(=O)c1ccc(Nc2nc(OC3CCCC3)c3c(-c4ccc5nc(C)oc5c4)c[nH]c3n2)c(OC)c1, 52.5%.

Staying with this assay, now noted: second compound 3.16 µM; first compound 0.316 µM; stronger effect = lower value.
Consider `O=c1[nH]cc(F)c(=O)[nH]1` + CNC(=O)c1ccc(Nc2nc(OC3CCCC3)c3c(-c4ccc5nc(C)oc5c4)c[nH]c3n2)c(OC)c1, for which the viability, T/C is 48.8%.
The same measure, in the same setting: to `CC1COCCN1c1cc(C2(S(C)(=N)=O)CC2)nc(-c2ccnc3[nH]ccc23)n1` (centres undefined) + CN1CCN(c2cc(C(=O)Nc3cc4cc(-c5cnn(C)c5)ccc4cn3)ccn2)CC1 belongs 6.65%; to `COC1C=CCC(C)C(C)S(=O)(=O)NC(=O)c2ccc3c(c2)N(CC2CCC21)CC1(CCCc2cc(Cl)ccc21)CO3` (centres undefined) + CNC(=O)c1ccc(Nc2nc(OC3CCCC3)c3c(-c4ccc5nc(C)oc5c4)c[nH]c3n2)c(OC)c1, 33.4%.
Same read-out and setting: to `COc1cccc2c1C(=O)c1c(O)c3c(c(O)c1C2=O)CC(O)(C(=O)CO)CC3OC1CC(N)C(O)C(C)O1` (centres undefined) + CNC(=O)c1ccc(Nc2nc(OC3CCCC3)c3c(-c4ccc5nc(C)oc5c4)c[nH]c3n2)c(OC)c1 belongs 50.3%.

Staying with this assay, now noted: second compound 3.16 µM; first compound 1 µM; stronger effect = lower value.
Turning to `O=c1[nH]cc(F)c(=O)[nH]1` + CNC(=O)c1ccc(Nc2nc(OC3CCCC3)c3c(-c4ccc5nc(C)oc5c4)c[nH]c3n2)c(OC)c1, the viability, T/C was 48.8%.
Regarding `CC1COCCN1c1cc(C2(S(C)(=N)=O)CC2)nc(-c2ccnc3[nH]ccc23)n1` (centres undefined) + CN1CCN(c2cc(C(=O)Nc3cc4cc(-c5cnn(C)c5)ccc4cn3)ccn2)CC1, the viability, T/C is 9.55%.
Same read-out and setting: then `COC1C=CCC(C)C(C)S(=O)(=O)NC(=O)c2ccc3c(c2)N(CC2CCC21)CC1(CCCc2cc(Cl)ccc21)CO3` (centres undefined) + CNC(=O)c1ccc(Nc2nc(OC3CCCC3)c3c(-c4ccc5nc(C)oc5c4)c[nH]c3n2)c(OC)c1, with 29.4%.
On the same count and under the same terms, to `COc1cccc2c1C(=O)c1c(O)c3c(c(O)c1C2=O)CC(O)(C(=O)CO)CC3OC1CC(N)C(O)C(C)O1` (centres undefined) + CNC(=O)c1ccc(Nc2nc(OC3CCCC3)c3c(-c4ccc5nc(C)oc5c4)c[nH]c3n2)c(OC)c1 belongs 9.3%.

Still in this assay, the particulars now being: second compound 3.16 µM; first compound 3.16 µM; stronger effect = lower value.
Consider `O=c1[nH]cc(F)c(=O)[nH]1` + CNC(=O)c1ccc(Nc2nc(OC3CCCC3)c3c(-c4ccc5nc(C)oc5c4)c[nH]c3n2)c(OC)c1, for which the viability, T/C was 48.8%.
On the same count and under the same terms, then `CC1COCCN1c1cc(C2(S(C)(=N)=O)CC2)nc(-c2ccnc3[nH]ccc23)n1` (centres undefined) + CN1CCN(c2cc(C(=O)Nc3cc4cc(-c5cnn(C)c5)ccc4cn3)ccn2)CC1, with 9.82%.
For `COC1C=CCC(C)C(C)S(=O)(=O)NC(=O)c2ccc3c(c2)N(CC2CCC21)CC1(CCCc2cc(Cl)ccc21)CO3` (centres undefined) + CNC(=O)c1ccc(Nc2nc(OC3CCCC3)c3c(-c4ccc5nc(C)oc5c4)c[nH]c3n2)c(OC)c1, the viability, T/C is 30.9%.
Still for that read-out and setting: then `COc1cccc2c1C(=O)c1c(O)c3c(c(O)c1C2=O)CC(O)(C(=O)CO)CC3OC1CC(N)C(O)C(C)O1` (centres undefined) + CNC(=O)c1ccc(Nc2nc(OC3CCCC3)c3c(-c4ccc5nc(C)oc5c4)c[nH]c3n2)c(OC)c1, with 10.3%.

The same assay, now with this note: second compound 3.16 µM; first compound 10 µM; stronger effect = lower value.
For `O=c1[nH]cc(F)c(=O)[nH]1` + CNC(=O)c1ccc(Nc2nc(OC3CCCC3)c3c(-c4ccc5nc(C)oc5c4)c[nH]c3n2)c(OC)c1, the viability, T/C is 35.6%.
For `CC1COCCN1c1cc(C2(S(C)(=N)=O)CC2)nc(-c2ccnc3[nH]ccc23)n1` (centres undefined) + CN1CCN(c2cc(C(=O)Nc3cc4cc(-c5cnn(C)c5)ccc4cn3)ccn2)CC1, the viability, T/C is 9.3%.
The same measure, in the same setting: to `COC1C=CCC(C)C(C)S(=O)(=O)NC(=O)c2ccc3c(c2)N(CC2CCC21)CC1(CCCc2cc(Cl)ccc21)CO3` (centres undefined) + CNC(=O)c1ccc(Nc2nc(OC3CCCC3)c3c(-c4ccc5nc(C)oc5c4)c[nH]c3n2)c(OC)c1 belongs 25.4%; to `COc1cccc2c1C(=O)c1c(O)c3c(c(O)c1C2=O)CC(O)(C(=O)CO)CC3OC1CC(N)C(O)C(C)O1` (centres undefined) + CNC(=O)c1ccc(Nc2nc(OC3CCCC3)c3c(-c4ccc5nc(C)oc5c4)c[nH]c3n2)c(OC)c1, 5.46%.

Staying with this assay, now noted: second compound 10 µM; first compound 0.0316 µM; stronger effect = lower value.
Consider `O=c1[nH]cc(F)c(=O)[nH]1` + CNC(=O)c1ccc(Nc2nc(OC3CCCC3)c3c(-c4ccc5nc(C)oc5c4)c[nH]c3n2)c(OC)c1, for which the viability, T/C is 45.4%.
The same measure, in the same setting: then `CC1COCCN1c1cc(C2(S(C)(=N)=O)CC2)nc(-c2ccnc3[nH]ccc23)n1` (centres undefined) + CN1CCN(c2cc(C(=O)Nc3cc4cc(-c5cnn(C)c5)ccc4cn3)ccn2)CC1, with 4.43%; and `COC1C=CCC(C)C(C)S(=O)(=O)NC(=O)c2ccc3c(c2)N(CC2CCC21)CC1(CCCc2cc(Cl)ccc21)CO3` (centres undefined) + CNC(=O)c1ccc(Nc2nc(OC3CCCC3)c3c(-c4ccc5nc(C)oc5c4)c[nH]c3n2)c(OC)c1, with 40.1%; and `COc1cccc2c1C(=O)c1c(O)c3c(c(O)c1C2=O)CC(O)(C(=O)CO)CC3OC1CC(N)C(O)C(C)O1` (centres undefined) + CNC(=O)c1ccc(Nc2nc(OC3CCCC3)c3c(-c4ccc5nc(C)oc5c4)c[nH]c3n2)c(OC)c1, with 41%.

The assay is the same for the next values; noted with them: second compound 10 µM; first compound 0.1 µM; stronger effect = lower value.
Regarding `O=c1[nH]cc(F)c(=O)[nH]1` + CNC(=O)c1ccc(Nc2nc(OC3CCCC3)c3c(-c4ccc5nc(C)oc5c4)c[nH]c3n2)c(OC)c1, the viability, T/C is 37.9%.
The same measure, in the same setting: to `CC1COCCN1c1cc(C2(S(C)(=N)=O)CC2)nc(-c2ccnc3[nH]ccc23)n1` (centres undefined) + CN1CCN(c2cc(C(=O)Nc3cc4cc(-c5cnn(C)c5)ccc4cn3)ccn2)CC1 belongs 4.71%.
On the same count and under the same terms, then `COC1C=CCC(C)C(C)S(=O)(=O)NC(=O)c2ccc3c(c2)N(CC2CCC21)CC1(CCCc2cc(Cl)ccc21)CO3` (centres undefined) + CNC(=O)c1ccc(Nc2nc(OC3CCCC3)c3c(-c4ccc5nc(C)oc5c4)c[nH]c3n2)c(OC)c1, with 38.4%; and `COc1cccc2c1C(=O)c1c(O)c3c(c(O)c1C2=O)CC(O)(C(=O)CO)CC3OC1CC(N)C(O)C(C)O1` (centres undefined) + CNC(=O)c1ccc(Nc2nc(OC3CCCC3)c3c(-c4ccc5nc(C)oc5c4)c[nH]c3n2)c(OC)c1, with 48.8%.

The same assay, now with this note: second compound 10 µM; first compound 0.316 µM; stronger effect = lower value.
Take `O=c1[nH]cc(F)c(=O)[nH]1` + CNC(=O)c1ccc(Nc2nc(OC3CCCC3)c3c(-c4ccc5nc(C)oc5c4)c[nH]c3n2)c(OC)c1: the viability, T/C is 46%.
For `CC1COCCN1c1cc(C2(S(C)(=N)=O)CC2)nc(-c2ccnc3[nH]ccc23)n1` (centres undefined) + CN1CCN(c2cc(C(=O)Nc3cc4cc(-c5cnn(C)c5)ccc4cn3)ccn2)CC1, the viability, T/C is 5.12%.
Consider `COC1C=CCC(C)C(C)S(=O)(=O)NC(=O)c2ccc3c(c2)N(CC2CCC21)CC1(CCCc2cc(Cl)ccc21)CO3` (centres undefined) + CNC(=O)c1ccc(Nc2nc(OC3CCCC3)c3c(-c4ccc5nc(C)oc5c4)c[nH]c3n2)c(OC)c1, for which the viability, T/C was 32.1%.
As to `COc1cccc2c1C(=O)c1c(O)c3c(c(O)c1C2=O)CC(O)(C(=O)CO)CC3OC1CC(N)C(O)C(C)O1` (centres undefined) + CNC(=O)c1ccc(Nc2nc(OC3CCCC3)c3c(-c4ccc5nc(C)oc5c4)c[nH]c3n2)c(OC)c1, the viability, T/C is 47.9%.

Still in this assay, the particulars now being: second compound 10 µM; first compound 1 µM; stronger effect = lower value.
For `O=c1[nH]cc(F)c(=O)[nH]1` + CNC(=O)c1ccc(Nc2nc(OC3CCCC3)c3c(-c4ccc5nc(C)oc5c4)c[nH]c3n2)c(OC)c1, the viability, T/C was 46%.
Same read-out and setting: then `CC1COCCN1c1cc(C2(S(C)(=N)=O)CC2)nc(-c2ccnc3[nH]ccc23)n1` (centres undefined) + CN1CCN(c2cc(C(=O)Nc3cc4cc(-c5cnn(C)c5)ccc4cn3)ccn2)CC1, with 4.78%; and `COC1C=CCC(C)C(C)S(=O)(=O)NC(=O)c2ccc3c(c2)N(CC2CCC21)CC1(CCCc2cc(Cl)ccc21)CO3` (centres undefined) + CNC(=O)c1ccc(Nc2nc(OC3CCCC3)c3c(-c4ccc5nc(C)oc5c4)c[nH]c3n2)c(OC)c1, with 30.5%; and `COc1cccc2c1C(=O)c1c(O)c3c(c(O)c1C2=O)CC(O)(C(=O)CO)CC3OC1CC(N)C(O)C(C)O1` (centres undefined) + CNC(=O)c1ccc(Nc2nc(OC3CCCC3)c3c(-c4ccc5nc(C)oc5c4)c[nH]c3n2)c(OC)c1, with 6.06%.

Staying with this assay, now noted: second compound 10 µM; first compound 3.16 µM; stronger effect = lower value.
`O=c1[nH]cc(F)c(=O)[nH]1` + CNC(=O)c1ccc(Nc2nc(OC3CCCC3)c3c(-c4ccc5nc(C)oc5c4)c[nH]c3n2)c(OC)c1: the viability, T/C was 47.5%.
The same measure, in the same setting: then `CC1COCCN1c1cc(C2(S(C)(=N)=O)CC2)nc(-c2ccnc3[nH]ccc23)n1` (centres undefined) + CN1CCN(c2cc(C(=O)Nc3cc4cc(-c5cnn(C)c5)ccc4cn3)ccn2)CC1, with 4.88%.
Still for that read-out and setting: then `COC1C=CCC(C)C(C)S(=O)(=O)NC(=O)c2ccc3c(c2)N(CC2CCC21)CC1(CCCc2cc(Cl)ccc21)CO3` (centres undefined) + CNC(=O)c1ccc(Nc2nc(OC3CCCC3)c3c(-c4ccc5nc(C)oc5c4)c[nH]c3n2)c(OC)c1, with 35.9%; and `COc1cccc2c1C(=O)c1c(O)c3c(c(O)c1C2=O)CC(O)(C(=O)CO)CC3OC1CC(N)C(O)C(C)O1` (centres undefined) + CNC(=O)c1ccc(Nc2nc(OC3CCCC3)c3c(-c4ccc5nc(C)oc5c4)c[nH]c3n2)c(OC)c1, with 11.8%.

Staying with this assay, now noted: second compound 10 µM; first compound 10 µM; stronger effect = lower value.
As for `O=c1[nH]cc(F)c(=O)[nH]1` + CNC(=O)c1ccc(Nc2nc(OC3CCCC3)c3c(-c4ccc5nc(C)oc5c4)c[nH]c3n2)c(OC)c1, the viability, T/C was 45.3%.
Same read-out and setting: to `CC1COCCN1c1cc(C2(S(C)(=N)=O)CC2)nc(-c2ccnc3[nH]ccc23)n1` (centres undefined) + CN1CCN(c2cc(C(=O)Nc3cc4cc(-c5cnn(C)c5)ccc4cn3)ccn2)CC1 belongs 4.15%; to `COC1C=CCC(C)C(C)S(=O)(=O)NC(=O)c2ccc3c(c2)N(CC2CCC21)CC1(CCCc2cc(Cl)ccc21)CO3` (centres undefined) + CNC(=O)c1ccc(Nc2nc(OC3CCCC3)c3c(-c4ccc5nc(C)oc5c4)c[nH]c3n2)c(OC)c1, 26.4%; to `COc1cccc2c1C(=O)c1c(O)c3c(c(O)c1C2=O)CC(O)(C(=O)CO)CC3OC1CC(N)C(O)C(C)O1` (centres undefined) + CNC(=O)c1ccc(Nc2nc(OC3CCCC3)c3c(-c4ccc5nc(C)oc5c4)c[nH]c3n2)c(OC)c1, 6.29%.
